Values quoted from earlier work in US20260137642A1 (CANCER PREVENTION PHARMACEUTICALS, INC., priority 2021, published 2026).

Experiments:
[1] = phase II study; cited from earlier work
[2] = cited from earlier work
[3] = cited from earlier work; remark: listed apart in the source
[4] = in vivo; cited from earlier work

CCNCCCNCCCNCCCNCC [DENSPM]
Tolerability [1]: well-tolerated

CSc1ccc(/C=C2/C(C)=C(CC(=O)O)c3cc(F)ccc32)cc1 [sulfide metabolite]
Mean half-life ([2]; in vivo): 16.4 h

CC1=C(CC(=O)O)c2cc(F)ccc2/C1=C\c1ccc([S+](C)[O-])cc1 (centres unmarked) [Sulindac, (Z)-5-fluoro-2-methyl-1-((4-(methylsulfinyl)phenyl)methylene)-1H-indene-3-acetic acid]
Fraction of the drug absorbed ([2]; after oral administration): about 90%
Time to peak plasma levels ([2]; fasting patients): about 2 hours
Patients with mild gastrointestinal effects ([3]; abdominal pain and nausea most frequent): ~20%
Patients with skin rash and pruritus ([3]; human, in vivo): 5%

Cc1ccc(-c2cc(C(F)(F)F)nn2-c2ccc(S(N)(=O)=O)cc2)cc1 [Celecoxib, 4-[5-(4-Methylphenyl)-3-(trifluoromethyl)pyrazol-1-yl]benzenesulfonamide]
Increase in rates of heart and blood vessel disease [4]: 30%
Risk of gastrointestinal side effects [4]: greater than 80%
